In patent US12304910B2, “Janus kinase (JAK) family inhibitor, preparation of same, and applications thereof” (JIANGSU VCARE PHARMATECH CO., LTD., priority 2019, dated 2025):

What was measured:
JAK1 = JAK1 (Homo sapiens, UniProt P23458); test: Kinase activity test (γ33P-ATP isotopic method), JAK1; assay type: biochemical; details: for IC50: 33P-ATP 10 μM, 2 h reaction; for activity in inhibiting the JAK1 kinase compared with Tofacitinib (in words): conclusion from Table 1
Method: (§1) This experiment adopted a γ^33p-ATP isotopic test method to test the inhibitory effect of a compound on kinases JAK1, JAK2, JAK3 and TYK2, and obtained a half inhibitory concentration IC50 of the compound for inhibiting activity of the kinase.
(§2) 20 mM 4-hydroxyethylpiperazine ethanesulfonic acid buffer (Hepes, pH 7.5), 10 mM magnesium chloride (MgCl2), 1 mM ethylene glycol diethyl ether diamine tetraacetic acid (EGTA), 0.02% dodecyl polyethylene glycol ether (Brij35), 0.02 mg/ml bovine serum albumin (BSA), 0.1 mM sodium vanadate (Na3VO4), 2 mM dithiothreitol (DTT), and 1% dimethylsulfoxide (DMSO).
(§3) A compound is dissolved with 100% DMSO to a specific concentration, and then subjected to gradient dilution by an automatic sampling device to obtain the samples to be tested with different concentrations (DMSO solutions).
(§4) 3.1 diluting the reaction substrate with the basic reaction buffer;
(§5) 3.2 adding the kinase into the substrate solution, and gently mixing well;
(§6) 3.3 adding, by the automatic sampling system, the 100% DMSO diluted compounds with different concentrations into the kinase solution, and incubating for 20 min at room temperature; and
(§7) 3.4 adding ^33p-ATP (10 μM, 10 μCi/μl) at room temperature to initiate the kinase reaction for a duration of 2 h.
(§8) The unreacted ATP and the reaction-generated […] in the reaction were removed by an ion exchange filtering system, and then the amount of radioactivity of ^33p isotope in the substrate was detected.
(§9) According to the amount of radioactivity, the kinase activities in the systems added with the inhibitors of different concentrations were calculated, to obtain the inhibitors' effects of the compounds of different concentrations on the kinase activity; and fitting was performed with graphpad prism to obtain the inhibitory IC50 values of the compounds.

JAK2 = JAK2 (Homo sapiens, UniProt O60674); test: Kinase activity test (γ33P-ATP isotopic method), JAK2; assay type: biochemical; details: 33P-ATP 10 μM, 2 h reaction
Method: as §1, §2, §3, §4, §5, §6, §7, §8, §9

JAK3 = target: T1, JAK3 (Homo sapiens, UniProt P52333); test: Kinase activity test (γ33P-ATP isotopic method), JAK3; assay type: biochemical; details: 33P-ATP 10 μM, 2 h reaction
T1 sequence (P52333 1-1124): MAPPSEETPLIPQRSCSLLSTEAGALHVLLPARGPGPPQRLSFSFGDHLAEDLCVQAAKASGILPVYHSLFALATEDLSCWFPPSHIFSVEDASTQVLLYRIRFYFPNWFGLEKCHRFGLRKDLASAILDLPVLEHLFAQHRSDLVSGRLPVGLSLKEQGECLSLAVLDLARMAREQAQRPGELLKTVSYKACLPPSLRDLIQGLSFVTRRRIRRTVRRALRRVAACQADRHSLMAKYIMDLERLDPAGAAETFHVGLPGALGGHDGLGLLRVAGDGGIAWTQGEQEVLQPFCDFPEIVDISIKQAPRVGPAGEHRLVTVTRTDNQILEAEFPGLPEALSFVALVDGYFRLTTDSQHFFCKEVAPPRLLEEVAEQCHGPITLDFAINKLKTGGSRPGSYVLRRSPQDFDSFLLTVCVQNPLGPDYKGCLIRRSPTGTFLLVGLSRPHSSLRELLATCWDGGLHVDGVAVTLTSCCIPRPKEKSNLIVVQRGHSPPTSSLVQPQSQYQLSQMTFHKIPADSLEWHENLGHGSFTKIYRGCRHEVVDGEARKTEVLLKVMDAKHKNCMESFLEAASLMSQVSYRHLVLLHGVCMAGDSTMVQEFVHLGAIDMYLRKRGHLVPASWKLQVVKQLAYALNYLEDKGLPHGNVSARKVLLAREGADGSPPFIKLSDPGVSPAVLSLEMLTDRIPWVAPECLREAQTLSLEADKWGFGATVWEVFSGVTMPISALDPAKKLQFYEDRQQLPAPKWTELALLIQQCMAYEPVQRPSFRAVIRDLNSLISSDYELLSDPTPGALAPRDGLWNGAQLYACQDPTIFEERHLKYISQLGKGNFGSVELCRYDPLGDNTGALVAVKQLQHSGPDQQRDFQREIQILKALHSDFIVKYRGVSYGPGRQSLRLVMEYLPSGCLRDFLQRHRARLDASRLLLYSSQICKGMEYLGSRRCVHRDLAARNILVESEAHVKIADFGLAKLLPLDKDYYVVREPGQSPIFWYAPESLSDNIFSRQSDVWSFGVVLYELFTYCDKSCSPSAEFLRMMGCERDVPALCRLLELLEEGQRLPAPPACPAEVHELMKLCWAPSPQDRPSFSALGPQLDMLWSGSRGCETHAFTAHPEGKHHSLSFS
Method: as §1, §2, §3, §4, §5, §6, §7, §8, §9

[1] = test system: DNBS induced rat Crohn's disease model; test: Therapeutic activity in DNBS induced rat Crohn's disease model; assay type: in vivo; design: rat colon ulcer area: unit not given beside the values; details: G3, 10 mg/kg-QD, 7 days, mean±SD
Method: Male wistar rats of 4-5 weeks old were adaptively fed for 5 days, and two days before the experiment, randomly divided into 6 groups:
Blank control group: G1 (Normal), 4 normal rats were selected and only given with 30% ethanol, 10 mL/kg.
0.5 mL of 50 mg/mL DNBS (DNBS dissolved in 30% ethanol) was injected into the colon of rats to induce enteritis in rats, for 40 rats in total. Eight of them were selected as model group G2 (Model), and the remaining 32 rats were administrated.
Administration group: the rats with DNBS induced enteritis were administered with ABT494 and the compound of Example 2 respectively and divided into G3-G6 groups, 8 rats/group. G3: ABT494, 10 mg/kg-QD; G4: Example 2, 0.3 mg/kg-BID; G5: Example 2, 1 mg/kg-BID; and G6: Example 2, 3 mg/kg-BID.
The rats were fasted, but fed with water for 48 hours, and a 5% glucose salt solution (10 mL/kg) was used as an energy supplement for experimental animals during the fasting period, once a day. On the day of experimental modeling, the fasting rats were anesthetized with Choutet (25 mg/kg), and then 0.5 mL of 50 mg/mL DNBS was injected from the anus to left colic flexure of the rat (about 8 cm to the anus) to induce rat enteritis. All rats were kept in a […] for 15 min until they were awaken, to prevent the backflow of DNBS. From the day of the experimental modeling, medication was given for 7 days.
After the DNBS modeling, the weights of the animals were measured and recorded every day, the daily activities of the animals were observed, and the abnormalities were recorded. During the experiment, the stool state of the rats was scored every day. On day 7, the rats were anesthetized with isoflurane (3-5%), blood was taken from the orbit, and the serum was separated and stored at −80° C. All animals were euthanized by cervical vertebra dis location after suffocation from excessive CO2 inhalation. The abdomen was cut, the colorectum was take out and longitudinally dissected, and the stool trait in the colorectum was scored. The colorectum was thoroughly rinsed with ice-cold PBS and then the ulcer surface was observed. The length and weight and ulcer area of the colon were recorded, the weight-length ratio (colon weight (g)/length (cm) ratio×100) was calculated, and the overall picture was taken. All intestinal tissue was longitudinally divided into two parts, where one part was fixed with 4% neutral […] and embedded with paraffin, and the rest colon sample was cryopreserved at −80° C.
Excel and Graphapad software were used for statistical analysis, and the results were expressed as mean±SD.

[2] = test system: DSS induced mouse ulcerative colitis model; test: Efficacy test in DSS induced mouse ulcerative colitis model; assay type: in vivo; details: 100 mg/kg group, once a day, mouse DSS model, DAI range 0-4
Text: Mice of 6-7 weeks old were randomly grouped, 6 mice per group. Purified water was provided ad libitum to the mice in a negative control group, and a 2% solution of dextran sulfate sodium (DSS) was provided ad libitum to the mice in other groups, for 7 consecutive days. During the modeling, medication was given according to the groups, once a day for 7 days (the treatment groups and the mouse numbers can be adjusted according to the specific situation). Within 8-10 days later, the DSS-containing water was replaced with purified water, provided ad libitum to the mice. The normal administration continued for 3 days.
From the first day of administration, the general conditions such as metal state, eating, drinking and activities of the mice were respectively observed every day, the mice were weighed every day, and the animal stools were collected, evaluated for their traits and subjected to the occult blood test. The disease activity index (DAI) of experimental animals within 1-10 days were comprehensively assessed.
Scoring was performed according to the above-mentioned standards. The disease activity index (DAI) of each mouse was obtained by summing the scores of weight loss, stool trait and occult blood condition, to evaluate the disease activity. DAI=(score of weight loss+score of stool trait+score of bloody stool)/3, ranging from 0-4.
The experimental data was processed statistically, and the data are all expressed as mean±SD or mean±SME. The SPSS13.0 software was used for statistical analysis, and the differences among the groups were compared with t test (equal variance) or t′ test (unequal variance).

JAK2, sequence (O60674 whole entry): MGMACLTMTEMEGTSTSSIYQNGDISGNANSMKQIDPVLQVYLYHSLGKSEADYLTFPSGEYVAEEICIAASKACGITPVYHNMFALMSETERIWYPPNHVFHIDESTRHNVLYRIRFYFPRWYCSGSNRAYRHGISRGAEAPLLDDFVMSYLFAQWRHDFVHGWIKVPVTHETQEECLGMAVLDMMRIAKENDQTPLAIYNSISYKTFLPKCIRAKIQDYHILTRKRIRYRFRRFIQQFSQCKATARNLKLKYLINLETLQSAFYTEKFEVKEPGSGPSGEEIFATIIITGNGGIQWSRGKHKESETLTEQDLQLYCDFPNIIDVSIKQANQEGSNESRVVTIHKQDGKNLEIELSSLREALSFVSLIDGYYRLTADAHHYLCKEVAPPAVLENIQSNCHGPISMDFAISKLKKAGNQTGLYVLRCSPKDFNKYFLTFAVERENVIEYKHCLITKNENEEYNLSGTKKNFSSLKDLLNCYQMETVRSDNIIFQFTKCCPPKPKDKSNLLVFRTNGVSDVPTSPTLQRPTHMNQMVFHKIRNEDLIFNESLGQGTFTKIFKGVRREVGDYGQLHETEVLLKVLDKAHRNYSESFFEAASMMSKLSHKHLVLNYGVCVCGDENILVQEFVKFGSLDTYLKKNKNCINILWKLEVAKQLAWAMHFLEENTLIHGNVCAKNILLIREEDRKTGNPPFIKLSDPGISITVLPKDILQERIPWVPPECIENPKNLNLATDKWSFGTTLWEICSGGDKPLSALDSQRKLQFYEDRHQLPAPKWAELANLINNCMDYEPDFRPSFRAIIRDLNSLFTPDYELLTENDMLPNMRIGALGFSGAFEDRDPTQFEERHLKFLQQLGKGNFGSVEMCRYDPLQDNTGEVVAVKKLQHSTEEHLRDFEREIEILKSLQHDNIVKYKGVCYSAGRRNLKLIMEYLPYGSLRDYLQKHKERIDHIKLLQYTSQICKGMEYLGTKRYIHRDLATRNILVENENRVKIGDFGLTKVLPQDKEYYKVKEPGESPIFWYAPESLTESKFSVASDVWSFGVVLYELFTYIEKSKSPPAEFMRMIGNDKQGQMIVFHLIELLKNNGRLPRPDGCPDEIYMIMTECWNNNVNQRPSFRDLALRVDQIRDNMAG
JAK1, sequence (P23458 whole entry): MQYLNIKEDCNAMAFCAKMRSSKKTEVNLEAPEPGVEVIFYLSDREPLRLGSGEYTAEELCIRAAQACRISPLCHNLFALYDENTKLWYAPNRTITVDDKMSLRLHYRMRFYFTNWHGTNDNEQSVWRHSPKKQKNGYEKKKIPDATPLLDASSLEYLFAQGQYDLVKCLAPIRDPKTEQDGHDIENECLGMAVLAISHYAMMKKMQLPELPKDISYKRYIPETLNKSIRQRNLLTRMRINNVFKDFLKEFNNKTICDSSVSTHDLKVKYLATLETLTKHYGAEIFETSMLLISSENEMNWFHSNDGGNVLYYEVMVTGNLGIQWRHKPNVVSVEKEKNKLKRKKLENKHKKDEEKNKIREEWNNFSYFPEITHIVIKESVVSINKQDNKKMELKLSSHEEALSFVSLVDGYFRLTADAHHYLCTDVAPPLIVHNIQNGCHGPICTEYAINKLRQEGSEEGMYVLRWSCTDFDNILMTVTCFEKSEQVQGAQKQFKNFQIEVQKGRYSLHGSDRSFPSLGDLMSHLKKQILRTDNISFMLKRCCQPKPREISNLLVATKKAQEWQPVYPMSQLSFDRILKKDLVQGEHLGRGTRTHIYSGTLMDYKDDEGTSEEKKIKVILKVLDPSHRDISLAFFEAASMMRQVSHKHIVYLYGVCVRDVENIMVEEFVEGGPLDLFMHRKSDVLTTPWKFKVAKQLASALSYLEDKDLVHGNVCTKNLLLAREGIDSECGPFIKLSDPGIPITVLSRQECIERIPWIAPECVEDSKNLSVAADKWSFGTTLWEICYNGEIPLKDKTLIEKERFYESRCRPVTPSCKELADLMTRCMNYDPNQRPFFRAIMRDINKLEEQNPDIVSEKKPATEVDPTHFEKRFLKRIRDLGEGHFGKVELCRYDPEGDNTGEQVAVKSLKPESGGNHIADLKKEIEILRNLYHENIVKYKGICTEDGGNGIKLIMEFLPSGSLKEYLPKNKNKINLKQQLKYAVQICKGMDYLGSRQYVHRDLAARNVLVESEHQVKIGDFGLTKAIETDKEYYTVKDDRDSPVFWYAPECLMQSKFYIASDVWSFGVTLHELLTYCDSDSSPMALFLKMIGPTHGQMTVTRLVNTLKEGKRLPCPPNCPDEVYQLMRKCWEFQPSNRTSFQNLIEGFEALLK

## NC(=O)c1cnc2[nH]ccc2c1NN1C2CCC1COC2 [Example 10, 4-((3-oxa-8-azabicyclo[3.2.1]octan-8-yl)amino)-1H-7-azaindole-5-carboxamide]
JAK1
  IC50: 51.9 nM

## NC(=O)c1cnc2[nH]ccc2c1NN1CCC[C@@H](C(=O)NCC(F)F)C1 [Example 4, (R)-4-(3-(2,2-difluoroethylcarbamoyl)piperidine-1-amino)-1H-7-azaindole-5-carboxamide]
JAK2
  IC50: 522 nM
JAK1
  IC50: 34.3 nM
JAK3
  IC50: 224 nM

## CN(c1ccnc2[nH]ccc12)N1CCCC(C(=O)NCC#N)C1 (stereo not shown) [WO2016116025 WX14, reference compound]
JAK2
  IC50: 126 nM
JAK1
  IC50: 19.7 nM
JAK3
  IC50: 68.9 nM

## CC[C@@H]1CN(C(=O)NCC(F)(F)F)C[C@@H]1c1cnc2cnc3[nH]ccc3n12 [ABT494, reference compound]
[1]; colon weight (g)/length (cm) ratio×100, model group G2 14.6±5.1
  colon weight-length ratio: 13.4±5.2
[1]; model group G2 1.54±2.00
  rat colon ulcer area: 1.37±1.72

## NC(=O)c1cnc2[nH]ccc2c1NN1CCC(C(=O)NCC(F)(F)F)C1 (stereo not shown) [Example 9]
JAK2
  IC50: 42.5 nM
JAK1
  IC50: 0.66 nM
  activity in inhibiting the JAK1 kinase compared with Tofacitinib (in words): higher activity in inhibiting the JAK1 kinase than the positive drug control Tofacitinib
JAK3
  IC50: 7.85 nM

## NC(=O)c1cnc2[nH]ccc2c1NN1CCC(C(=O)NCC(F)(F)F)CC1 [Example 19, 4-(4-(2,2,2-trifluoroethylcarbamoyl)piperidine-1-amino)-1H-7-azaindole-5-carboxamide]
JAK2
  IC50: 353 nM
JAK1
  IC50: 24 nM
JAK3
  IC50: 21.4 nM

## Nc1ccc(O)c(C(=O)O)c1 [mesalazine, reference compound]
[2]
  DAI score on day 8: 3.5

## CNC(=O)c1cnc2[nH]ccc2c1NN1CCC[C@H](C(=O)NCC(F)(F)F)C1 [Example 23]
JAK2
  IC50: 18.8 nM
JAK1
  IC50: 0.64 nM
  activity in inhibiting the JAK1 kinase compared with Tofacitinib (in words): higher activity in inhibiting the JAK1 kinase than the positive drug control Tofacitinib
JAK3
  IC50: 6.54 nM

## NC(=O)c1cnc2[nH]ccc2c1NN1CCC[C@H](C(=O)NC2CC2)C1 [Example 6, (S)-4-(3-(cyclopropylcarbamoyl)piperidine-1-amino)-1H-7-azaindole-5-carboxamide]
JAK2
  IC50: 44.6 nM
JAK1
  IC50: 1.06 nM
JAK3
  IC50: 21.7 nM

## NC(=O)c1cnc2[nH]ccc2c1NN1CCC2(CCNC2=O)CC1 [Example 14, 4-(1-keto-2,8-diazaspiro[4.5]decane-8-amino)-1H-7-azaindole-5-carboxamide]
JAK1
  IC50: 78.3 nM

## CC1CCC(C(=O)NCC(F)(F)F)CN1Nc1c(C(N)=O)cnc2[nH]ccc12 (stereo not shown) [Example 16, 4-(2-methyl-5-(2,2,2-trifluoroethylcarbamoyl)piperidine-1-amino)-1H-7-azaindole-5-carboxamide]
JAK2
  IC50: 41.2 nM
JAK1
  IC50: 1.15 nM
JAK3
  IC50: 9 nM

## CN(c1ccnc2[nH]ccc12)N1CCCC(C(=O)NCC(F)(F)F)C1 (stereo not shown) [WO2016116025 WX15, reference compound]
JAK2
  IC50: 297 nM
JAK1
  IC50: 17.3 nM
JAK3
  IC50: 104 nM

## CNC(=O)c1cnc2[nH]ccc2c1NN1CCC[C@H](C(=O)NCC(F)F)C1 [Example 22, (S)-4-((3-((2,2-difluoroethyl)carbamoyl)piperidin-1-yl)amino)-N-methyl-1H-7-pyrrolo[2,3-b]pyridine-5-carboxamide]
JAK2
  IC50: 137 nM
JAK1
  IC50: 35.9 nM
JAK3
  IC50: 103 nM

## CCOC(=O)[C@H]1CCCN(Nc2c(C(N)=O)cnc3[nH]ccc23)C1 [Example 8]
JAK2
  IC50: 46.5 nM
JAK1
  IC50: 2.03 nM
JAK3
  IC50: 8.67 nM

## NC(=O)c1cnc2[nH]ccc2c1NN1[C@@H]2CC[C@H]1C[C@@H](O)C2 [Example 11, 4-((3-hydroxyl-8-azabicyclo[3.2.1]octan-8-yl)amino)-1H-7-azaindole-5-carboxamide]
JAK2
  IC50: 211 nM
JAK1
  IC50: 11.7 nM
JAK3
  IC50: 15.5 nM
